Test results: ChEMBL document CHEMBL6114946, “Development and characterization of pyridyl carboxamides as potent and highly selective Nav1.8 inhibitors” (Bioorg Med Chem Lett, 2025)
Converted amounts (≈) assume the structure as drawn. Blank lines part the entries; values can stand above or below the compound they belong to. The source made the active and inactive calls. The rule behind the calls is not given here.

Experiments:
[1] = target: T1, Sodium channel protein type 10 subunit alpha (Homo sapiens, UniProt Q9Y5Y9); test: Inhibition of Nav1.8 (unknown origin) over expressed in HEK cells assessed as reduction in deltamethrin-stimulated channel activation by FLIPR assay; type: cell-based
Target sequence in this assay (Q9Y5Y9 whole entry): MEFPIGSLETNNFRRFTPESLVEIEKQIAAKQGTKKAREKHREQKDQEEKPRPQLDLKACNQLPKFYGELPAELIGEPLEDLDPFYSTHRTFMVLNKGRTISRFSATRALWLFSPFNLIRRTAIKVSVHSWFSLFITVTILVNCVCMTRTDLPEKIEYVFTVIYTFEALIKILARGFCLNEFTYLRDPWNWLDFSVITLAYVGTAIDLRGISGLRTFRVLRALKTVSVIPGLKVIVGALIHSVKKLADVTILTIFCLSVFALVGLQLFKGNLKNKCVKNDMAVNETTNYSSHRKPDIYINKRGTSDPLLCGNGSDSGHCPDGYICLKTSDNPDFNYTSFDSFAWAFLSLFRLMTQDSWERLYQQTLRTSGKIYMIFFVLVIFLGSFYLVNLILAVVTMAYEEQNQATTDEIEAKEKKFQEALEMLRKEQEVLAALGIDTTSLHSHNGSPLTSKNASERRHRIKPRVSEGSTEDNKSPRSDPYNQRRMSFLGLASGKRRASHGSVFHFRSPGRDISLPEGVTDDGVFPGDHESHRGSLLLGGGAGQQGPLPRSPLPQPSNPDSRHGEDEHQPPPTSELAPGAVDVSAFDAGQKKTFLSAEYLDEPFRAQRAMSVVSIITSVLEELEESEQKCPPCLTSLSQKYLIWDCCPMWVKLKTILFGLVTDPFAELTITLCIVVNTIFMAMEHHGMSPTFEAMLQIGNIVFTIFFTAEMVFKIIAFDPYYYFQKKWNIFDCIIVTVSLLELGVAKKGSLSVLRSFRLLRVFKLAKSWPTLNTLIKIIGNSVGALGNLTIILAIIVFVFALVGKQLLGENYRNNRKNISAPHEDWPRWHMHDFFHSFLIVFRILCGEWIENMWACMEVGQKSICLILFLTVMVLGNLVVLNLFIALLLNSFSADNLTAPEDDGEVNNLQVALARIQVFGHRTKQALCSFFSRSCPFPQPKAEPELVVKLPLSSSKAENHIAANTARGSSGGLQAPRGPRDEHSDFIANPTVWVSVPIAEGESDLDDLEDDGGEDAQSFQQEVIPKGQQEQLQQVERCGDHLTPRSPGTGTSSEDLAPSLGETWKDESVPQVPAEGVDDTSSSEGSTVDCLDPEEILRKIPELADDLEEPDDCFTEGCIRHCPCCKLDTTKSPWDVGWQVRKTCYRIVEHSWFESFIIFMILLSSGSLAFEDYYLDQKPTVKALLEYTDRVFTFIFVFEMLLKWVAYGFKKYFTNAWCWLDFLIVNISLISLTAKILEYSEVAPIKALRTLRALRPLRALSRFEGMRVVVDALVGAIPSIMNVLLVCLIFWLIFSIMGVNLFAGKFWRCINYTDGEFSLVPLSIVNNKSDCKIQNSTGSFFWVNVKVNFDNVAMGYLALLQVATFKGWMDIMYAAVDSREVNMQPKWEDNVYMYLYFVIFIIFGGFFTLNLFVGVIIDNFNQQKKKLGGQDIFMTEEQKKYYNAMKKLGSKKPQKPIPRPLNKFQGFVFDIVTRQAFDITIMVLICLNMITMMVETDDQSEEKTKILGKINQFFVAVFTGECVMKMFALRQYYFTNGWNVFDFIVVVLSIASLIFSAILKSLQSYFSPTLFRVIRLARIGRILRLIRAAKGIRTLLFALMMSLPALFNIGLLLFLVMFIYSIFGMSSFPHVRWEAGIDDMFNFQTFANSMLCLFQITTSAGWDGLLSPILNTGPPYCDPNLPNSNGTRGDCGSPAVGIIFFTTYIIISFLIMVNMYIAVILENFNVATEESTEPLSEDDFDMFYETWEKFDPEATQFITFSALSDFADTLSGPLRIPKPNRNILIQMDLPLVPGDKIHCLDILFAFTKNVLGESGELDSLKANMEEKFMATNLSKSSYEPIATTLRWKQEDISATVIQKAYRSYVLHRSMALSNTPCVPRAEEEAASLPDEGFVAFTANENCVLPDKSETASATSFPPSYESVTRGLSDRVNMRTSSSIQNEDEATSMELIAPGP

[2] = target: T1, Sodium channel protein type 10 subunit alpha; test: Inhibition of Nav1.8 (unknown origin) at 10 uM by Ionflux high-throughput automated patch method
Target sequence in this assay (Q9Y5Y9 whole entry, looked up): as the sequence (Q9Y5Y9 whole entry) above

[3] = target: T1, Sodium channel protein type 10 subunit alpha; test: Inhibition of human Nav1.8 with resting membrane potential at half inactivated state by PatchXpress high-throughput electrophysiology method
Target sequence in this assay (Q9Y5Y9 whole entry): as above

[4] = Kinetic solubility of the compound in pH 7.4 phosphate buffered saline measured after 2 hrs by LC/MS analysis; type: physicochemical; settings: read-out: Kinetic_solubility
[5] = target: Nav1.4 (sodium channel protein type 4 subunit alpha) (Homo sapiens, UniProt P35499); test: Inhibition of Nav1.4 (unknown origin) at 30 uM relative to control; type: toxicity
Cytochrome P450 3A4 = Cytochrome P450 3A4 (Homo sapiens, UniProt P08684); test: Inhibition of CYP3A4 (unknown origin); type: ADME
Cytochrome P450 3A4, sequence (P08684 whole entry): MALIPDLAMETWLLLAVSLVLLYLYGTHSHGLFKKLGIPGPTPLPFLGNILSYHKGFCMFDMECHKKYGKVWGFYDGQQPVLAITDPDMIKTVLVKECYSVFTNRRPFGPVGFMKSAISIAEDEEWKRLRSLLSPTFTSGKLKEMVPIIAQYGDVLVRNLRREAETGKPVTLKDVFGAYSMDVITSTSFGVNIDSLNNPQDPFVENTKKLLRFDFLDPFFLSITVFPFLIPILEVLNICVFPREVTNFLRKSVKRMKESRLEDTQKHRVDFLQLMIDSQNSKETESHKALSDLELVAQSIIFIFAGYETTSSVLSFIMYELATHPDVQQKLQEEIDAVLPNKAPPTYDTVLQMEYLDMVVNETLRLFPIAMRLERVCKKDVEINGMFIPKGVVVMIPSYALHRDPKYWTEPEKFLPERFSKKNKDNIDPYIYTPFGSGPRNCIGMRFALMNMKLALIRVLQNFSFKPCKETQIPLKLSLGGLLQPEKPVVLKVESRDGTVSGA

[6] = Volume of distribution at steady state in dog at 1 mg/kg, iv; type: ADME, organism-based, Canis lupus familiaris; settings: in vivo, read-out: Vdss
[7] = target: T1, Sodium channel protein type 10 subunit alpha; test: Inhibition of Nav1.8 (unknown origin) over expressed in HEK cells exposed to 1st depolarizing pulse at 10 Hz train of action potential at 12 nM; type: cell-based
Target sequence in this assay (Q9Y5Y9 whole entry, looked up): as the sequence (Q9Y5Y9 whole entry) above

[8] = target: Sodium channel protein type 10 subunit alpha (Mus musculus, UniProt Q6QIY3); test: Inhibition of mouse Nav1.8 with resting membrane potential at half inactivated state by PatchXpress high-throughput electrophysiology method
[9] = Clearance in cynomolgus monkey at 1 mg/kg; type: ADME, organism-based, Macaca fascicularis; settings: in vivo
[10] = Protein binding in human plasma assessed as unbound fraction; type: ADME, cell-free
[11] = Oral bioavailability in dog at 10 mg/kg; type: ADME, organism-based, Canis lupus familiaris; settings: in vivo
[12] = target: Nav1.3 (sodium channel protein type 3 subunit alpha) (Homo sapiens, UniProt Q9NY46); test: Inhibition of Nav1.3 (unknown origin) at 30 uM relative to control; type: toxicity
[13] = Apparent permeability in MDCK-MDR1 cells; type: ADME, cell-based, Canis lupus familiaris; settings: dog
[14] = target: Nav1.2 (sodium channel protein type 2 subunit alpha) (Homo sapiens, UniProt Q99250); test: Inhibition of Nav1.2 (unknown origin) at 30 uM relative to control; type: toxicity
[15] = Volume of distribution at steady state in rat at 1 mg/kg, iv; type: ADME, organism-based; settings: in vivo, read-out: Vdss
[16] = target: Nav1.1 (sodium channel protein type 1 subunit alpha) (Homo sapiens, UniProt P35498); test: Inhibition of Nav1.1 (unknown origin) at 30 uM relative to control; type: toxicity
[17] = target: Nav1.7 (sodium channel protein type 9 subunit alpha) (Homo sapiens, UniProt Q15858); test: Inhibition of Nav1.7 (unknown origin) at 30 uM relative to control; type: toxicity
[18] = target: Voltage-gated inwardly rectifying potassium channel KCNH2 (Homo sapiens, UniProt Q12809); test: Inhibition of human ERG; type: toxicity
Voltage-gated inwardly rectifying potassium channel KCNH2, sequence (Q12809 whole entry): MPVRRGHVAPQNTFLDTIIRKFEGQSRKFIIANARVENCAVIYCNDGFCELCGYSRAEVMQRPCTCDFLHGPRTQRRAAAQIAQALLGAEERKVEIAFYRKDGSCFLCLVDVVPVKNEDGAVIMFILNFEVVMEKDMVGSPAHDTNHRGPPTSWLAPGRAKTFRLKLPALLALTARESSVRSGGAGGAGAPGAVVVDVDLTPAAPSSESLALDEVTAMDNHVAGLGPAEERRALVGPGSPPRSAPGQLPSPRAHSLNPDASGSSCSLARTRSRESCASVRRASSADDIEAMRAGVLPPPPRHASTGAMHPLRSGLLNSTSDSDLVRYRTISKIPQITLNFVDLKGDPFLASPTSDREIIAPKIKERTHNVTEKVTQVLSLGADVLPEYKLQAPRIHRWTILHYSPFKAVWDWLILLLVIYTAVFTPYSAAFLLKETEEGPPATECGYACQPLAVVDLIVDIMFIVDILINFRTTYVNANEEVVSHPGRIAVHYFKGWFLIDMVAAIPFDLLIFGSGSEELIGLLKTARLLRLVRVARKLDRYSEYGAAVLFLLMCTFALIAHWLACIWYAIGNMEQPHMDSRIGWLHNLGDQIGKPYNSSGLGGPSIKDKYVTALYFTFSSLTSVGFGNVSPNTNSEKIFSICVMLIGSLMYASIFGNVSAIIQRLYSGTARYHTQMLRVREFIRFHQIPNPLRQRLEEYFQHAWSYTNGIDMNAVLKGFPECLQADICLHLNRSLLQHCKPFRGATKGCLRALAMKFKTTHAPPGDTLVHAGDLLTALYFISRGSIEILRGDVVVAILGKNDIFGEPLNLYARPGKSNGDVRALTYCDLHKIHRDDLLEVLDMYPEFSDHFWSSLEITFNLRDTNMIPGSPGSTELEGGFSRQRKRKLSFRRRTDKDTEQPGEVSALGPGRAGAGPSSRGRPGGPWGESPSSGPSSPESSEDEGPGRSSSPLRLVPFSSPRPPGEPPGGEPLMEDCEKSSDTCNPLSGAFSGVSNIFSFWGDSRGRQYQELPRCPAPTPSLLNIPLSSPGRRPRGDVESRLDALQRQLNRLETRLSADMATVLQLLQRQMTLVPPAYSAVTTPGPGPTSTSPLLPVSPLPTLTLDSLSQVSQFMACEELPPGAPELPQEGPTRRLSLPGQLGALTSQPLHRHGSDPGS

[19] = target: Nav1.5 (sodium channel protein type 5 subunit alpha) (Homo sapiens, UniProt Q14524); test: Inhibition of Nav1.5 (unknown origin) at 30 uM relative to control; type: toxicity
[20] = Oral bioavailability in cynomolgus monkey at 10 mg/kg; type: ADME, organism-based, Macaca fascicularis; settings: in vivo
[21] = Inhibition of Nav1.5 (domain 1 and 2)-Nav 1.8 (domain 3 and 4) chimera (unknown origin) with resting membrane potential at half inactivated state by PatchXpress high-throughput electrophysiology method; parameters: species or system Homo sapiens
[22] = target: T1, Sodium channel protein type 10 subunit alpha; test: Inhibition of human Nav1.8 with resting membrane potential by PatchXpress high-throughput electrophysiology method
Target sequence in this assay (Q9Y5Y9 whole entry): as the sequence (Q9Y5Y9 whole entry) above

[23] = Stability in human liver microsomes assessed as parent compound remaining measured after 60 mins; type: ADME, Microsome; settings: read-out: Stability
[24] = Volume of distribution at steady state in cynomolgus monkey at 1 mg/kg, iv; type: ADME, organism-based, Macaca fascicularis; settings: in vivo, read-out: Vdss
[25] = Ratio of drug level in rat brain to plasma at 1 mg/kg, iv measured after 60 mins; type: ADME, organism-based; settings: read-out: BPR
[26] = Efflux ratio of apparent permeability in MDCK-MDR1 cells; type: ADME, cell-based, Canis lupus familiaris; settings: dog
[27] = Clearance in dog at 1 mg/kg; type: ADME, organism-based, Canis lupus familiaris; settings: in vivo
[28] = target: T1, Sodium channel protein type 10 subunit alpha; test: Inhibition of Nav1.8 (unknown origin) over expressed in HEK cells exposed to 120th depolarizing pulse at 10 Hz train of action potential at 12 nM; type: cell-based
Target sequence in this assay (Q9Y5Y9 whole entry, looked up): as the sequence (Q9Y5Y9 whole entry) above

[29] = Clearance in rat at 1 mg/kg; type: ADME, organism-based; settings: in vivo
[30] = Oral bioavailability in rat at 10 mg/kg; type: ADME, organism-based; settings: in vivo
Cytochrome P450 1A2 = target: T2, Cytochrome P450 1A2 (Homo sapiens, UniProt P05177); test: Inhibition of CYP1A2 (unknown origin); type: ADME
T2 sequence (P05177 whole entry): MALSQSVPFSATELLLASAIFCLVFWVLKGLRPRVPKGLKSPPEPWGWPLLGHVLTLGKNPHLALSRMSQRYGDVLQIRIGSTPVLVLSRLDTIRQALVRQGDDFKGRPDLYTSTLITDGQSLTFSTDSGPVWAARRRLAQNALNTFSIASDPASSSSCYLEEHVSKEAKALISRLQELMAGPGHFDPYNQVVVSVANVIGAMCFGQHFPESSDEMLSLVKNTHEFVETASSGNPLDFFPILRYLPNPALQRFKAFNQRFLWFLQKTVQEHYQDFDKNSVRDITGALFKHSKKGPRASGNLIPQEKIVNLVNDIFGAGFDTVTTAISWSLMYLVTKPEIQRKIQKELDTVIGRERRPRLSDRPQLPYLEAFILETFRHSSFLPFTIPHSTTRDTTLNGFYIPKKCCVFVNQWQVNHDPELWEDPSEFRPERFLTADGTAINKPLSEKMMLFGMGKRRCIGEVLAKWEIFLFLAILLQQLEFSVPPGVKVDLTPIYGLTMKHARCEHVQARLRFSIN

[31] = target: Nav1.6 (sodium channel protein type 8 subunit alpha) (Homo sapiens, UniProt Q9UQD0); test: Inhibition of Nav1.6 (unknown origin) at 30 uM relative to control; type: toxicity
[32] = Genotoxicity in Salmonella typhimurium by Ames test; type: toxicity; settings: salmonella enterica subsp. enterica serovar typhimurium

Compound: CS(=O)(=O)c1cccc(NC(=O)c2cc(C(F)(F)F)cnc2Oc2ccccc2)c1
IC50 [1]: 1600 nM
inhibition [2]: Active

Compound: COc1cc(F)ccc1Oc1ncc(C(F)(F)F)cc1C(=O)Nc1cccc(P(C)(C)=O)c1
IC50 [1]: 3000 nM
inhibition [2]: Active

Compound: CC(C)Oc1ncc(C(F)(F)F)cc1C(=O)Nc1cccc(S(C)(=O)=O)c1
IC50 [3]: > 10000 nM
inhibition [2]: inactive

Compound: COCCCNC(=O)c1cc(C(F)(F)F)cnc1Oc1ccc(F)cc1OC
IC50 [3]: > 10000 nM
inhibition [2]: inactive

Compound: CS(=O)(=O)c1cccc(NC(=O)c2cc(C(F)(F)F)cnc2Oc2cc(F)cc(F)c2)c1
IC50 [1]: 1300 nM
inhibition [2]: Active

Compound: COc1cc(F)ccc1Oc1ncc(C(F)(F)F)cc1C(=O)Nc1cccc(S(C)(=N)=O)c1 (configuration not stated)
IC50 [3]: 23 nM
solubility kinetic at 2 h [4]: 48 µg/mL (≈ 99.3 µM)
IC50 [1]: 22 nM
inhibition [2]: Active

Compound: COc1cc(F)ccc1Oc1ncc(C(F)(F)F)cc1C(=O)Nc1cccnc1
IC50 [1]: 2200 nM
inhibition [2]: Active

Compound: COc1cc(F)ccc1Oc1ncc(C(F)(F)F)cc1C(=O)NCc1cccnc1N1CCOCC1
IC50 [3]: > 10000 nM
inhibition [2]: inactive

Compound: COc1cc(F)ccc1Oc1ncc(C(F)(F)F)cc1C(=O)Nc1ccccn1
IC50 [1]: > 5000 nM
inhibition [2]: Active

Compound: O=C(Nc1ccc[n+]([O-])c1)c1cc(C(F)(F)F)cnc1Oc1ccc(F)cc1Cl
INH (Cytochrome P450 3A4): > 30 µM
IC50 [8]: 920 nM
fraction unbound [10]: 0.1
IC50 [3]: 56 nM
solubility kinetic at 2 h [4]: 0.084 µg/mL (≈ 0.196 µM)
IC50 [18]: 15000 nM
remaining at 1 h [23]: 95%
inhibition [2]: Active
clearance [29]: 3.3 mL/min/kg
Activity [32]: Non-toxic
INH (Cytochrome P450 1A2): > 30 µM

Compound: COc1cc(F)ccc1Oc1cc(C(F)(F)F)ncc1C(=O)Nc1cccc(S(C)(=O)=O)c1
IC50 [3]: 32 nM
IC50 [1]: 92 nM
inhibition [2]: Active

Compound: COc1cc(F)ccc1Oc1nc(C(F)(F)F)ncc1C(=O)Nc1cccc(S(C)(=O)=O)c1
IC50 [3]: > 10000 nM
inhibition [2]: inactive

More lines, main results first:

IC50 [3]: 20 nM
solubility kinetic at 2 h [4]: 4 µg/mL (≈ 7.69 µM)
inhibition [2]: Active
Compound: CS(=O)(=O)c1cccc(NC(=O)c2cc(C(F)(F)F)cnc2Oc2ccc(OC(F)(F)F)cc2)c1

IC50 [3]: 15 nM
solubility kinetic at 2 h [4]: 1.5 µg/mL (≈ 2.7 µM)
IC50 [1]: 24 nM
inhibition [2]: Active
Compound: CS(=O)(=O)c1cccc(NC(=O)c2cc(C(F)(F)F)cnc2Oc2ccc(OC(F)(F)F)cc2Cl)c1

IC50 [1]: 120 nM
inhibition [2]: Active
Compound: Cc1cc(F)ccc1Oc1ncc(C(F)(F)F)cc1C(=O)Nc1cccc(S(C)(=O)=O)c1

IC50 [1]: 2900 nM
inhibition [2]: Active
Compound: CS(=O)(=O)c1cccc(NC(=O)c2cc(C(F)(F)F)cnc2Oc2ccc(F)cc2)c1

INH (Cytochrome P450 3A4): > 30 µM
Vd [6]: 2 L/kg
inhibition [7]: 25.4%
IC50 [8]: 660 nM
clearance [9]: 2.5 mL/min/kg
fraction unbound [10]: 0.073
bioavailability [11]: 61%
Papp [13]: 15.5 ×10⁻⁶ cm/s
IC50 [3]: 12 nM
Vd [15]: 1.9 L/kg
solubility kinetic at 2 h [4]: 26 µg/mL (≈ 53.3 µM)
bioavailability [20]: 98%
IC50 [22]: 43 nM
remaining at 1 h [23]: > 95%
Vd [24]: 2.9 L/kg
Kp at 1 h [25]: 0.89
inhibition [2]: Active
efflux ratio [26]: 0.8
clearance [27]: 3.6 mL/min/kg
inhibition [28]: 24.9%
clearance [29]: 5.9 mL/min/kg
bioavailability [30]: 86%
INH (Cytochrome P450 1A2): > 30 µM
Compound: CS(=N)(=O)c1cccc(NC(=O)c2cc(C(F)(F)F)cnc2Oc2ccc(F)cc2Cl)c1 (configuration not stated)
inhibition at 30 µM [5]: < 25%
inhibition at 30 µM [12]: < 25%
inhibition at 30 µM [14]: < 25%
inhibition at 30 µM [16]: < 25%
inhibition at 30 µM [17]: < 25%
IC50 [18]: > 30000 nM
inhibition at 30 µM [19]: < 25%
IC50 [21]: 9310 nM
inhibition at 30 µM [31]: < 25%

IC50 [3]: 35 nM
solubility kinetic at 2 h [4]: 1.4 µg/mL (≈ 2.62 µM)
inhibition [2]: Active
Compound: Cc1cc(OC(F)(F)F)ccc1Oc1ncc(C(F)(F)F)cc1C(=O)Nc1cccc(S(C)(=O)=O)c1
